Measured values published in patent US8138153B2, “Potassium channel modulator peptide” (National Centre for Biological Sciences, priority 2004, dated 2012).

System: K^+ currents (voltage dependent potassium channels) in DRG neurons
Format: cell-based, Wistar rats

FHGGSWYRFPWGY-NH2 [Mo1659]
Effect on fast transient K^+ current component: not significantly affected
